Measurements reported in article PMC7531004, “Discovery of gramicidin A analogues with altered activities by multidimensional screening of a one-bead-one-compound library” (Nature Communications, 2020).
Where a SMILES comes first, the peptide text is derived from it. [ ]: non-standard residue; d: D form. The star is where a group is joined. NHCH2CH2OH = OCCN*; For = O=C*

Experiments:
[1] = cell viability/%
Method in brief: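 P388 cells at 1 × 10^4 cells/mL (final) were exposed to library peptides (stocks diluted 250-fold in RPMI1640/10% FBS) for 92 h at 37 °C, 5% CO2. Viable cells were counted by WST-1/1-methoxy PMS (4 h), absorbance 415 nm, and expressed as cell viability (%).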

[2] = tested on: Streptococcus pyogenes SSI-9; experiment: Antibacterial activity assay of bead-derived peptides (three concentrations); type: cell-based; design: key: +++: inhibition by the 640-fold diluted peptide solution; ++: inhibition by the 160-fold diluted solution; +: inhibition by the 40-fold diluted solution; -: no inhibition; details: S. pyogenes, bead-derived peptide solution, three concentrations
Method in brief: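 Undiluted, 4-fold and 16-fold DMSO-diluted peptide stocks; S. pyogenes SSI-9, 2 × 10^5 CFU, cation-adjusted MHB (50 mg/L Ca2+, 25 mg/L Mg2+) + 5% laked horse blood; 37 °C, 18 h; readout = cell pellet visible or not.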

[3] = H+/Na+ transport assay of bead-derived peptides (one-point); type: biochemical; design: key: relative activity; mean of two control wells = 1.00; details: bead-derived peptide solution, EYPC/EYPG LUVs;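 further: relative to parent gramicidin A activity set to 1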
Method in brief: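 Values are normalized fluorescence, with Triton X-100 defining 100% and untreated LUVs 0%, and the two control wells averaging 1.00. Vesicles carried 1.0 mM pyranine and included egg yolk phosphatidylglycerol. Peptides were incubated with them 30 min at room temperature.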

Row | Compound | viability [1] [%] | antibacterial activity [2] | H+/Na+ transport activity normalized against the value of 1 (1.00) [3]
1 | CC(C)C[C@@H](NC(=O)[C@H](C)NC(=O)CNC(=O)[C@@H](NC=O)C(C)C)C(=O)N[C@@H](C)C(=O)N[C@H](CC(C)C)C(=O)N[C@H](C(=O)N[C@@H](C(=O)N[C@@H](Cc1c[nH]c2ccccc12)C(=O)N[C@@H](C(=O)N[C@@H](Cc1c[nH]c2ccccc12)C(=O)N[C@@H](C(=O)N[C@@H](Cc1c[nH]c2ccccc12)C(=O)N[C@H](CC(C)C)C(=O)N[C@@H](Cc1c[nH]c2ccccc12)C(=O)NCCO)C(C)C)[C@H](C)O)C(C)C)C(C)C [compound 2931] (For-VGA[dL]A[dL]V[dV]W[dT]W[dV]W[dL]W-NHCH2CH2OH) | 100 | + | 1.06
2 | CNC(=O)C[C@@H](NC(=O)[C@@H](NC(=O)[C@H](NC(=O)[C@H](C)NC(=O)[C@H](NC(=O)[C@H](C)NC(=O)CNC(=O)[C@@H](NC=O)C(C)C)C(C)C)C(C)C)C(C)C)C(=O)N[C@@H](Cc1c[nH]c2ccccc12)C(=O)N[C@@H](C(=O)N[C@@H](Cc1c[nH]c2ccccc12)C(=O)N[C@H](CC(C)C)C(=O)N[C@@H](Cc1c[nH]c2ccccc12)C(=O)N[C@H](CC(C)C)C(=O)N[C@@H](Cc1c[nH]c2ccccc12)C(=O)NCCO)C(C)C [compound 903] (For-VGA[dV]A[dV]V[dD](NHMe)W[dV]W[dL]W[dL]W-NHCH2CH2OH) | 89.7 | - | 1.15
3 | CC(C)C[C@@H](NC(=O)[C@H](C)NC(=O)CNC(=O)[C@@H](NC=O)C(C)C)C(=O)N[C@@H](C)C(=O)N[C@H](CC(C)C)C(=O)N[C@H](C(=O)N[C@@H](C(=O)N[C@@H](Cc1c[nH]c2ccccc12)C(=O)N[C@H](CC(C)C)C(=O)N[C@@H](Cc1c[nH]c2ccccc12)C(=O)N[C@@H](C(=O)N[C@@H](Cc1c[nH]c2ccccc12)C(=O)N[C@@H](C(=O)N[C@@H](Cc1c[nH]c2ccccc12)C(=O)NCCO)C(C)C)C(C)C)[C@H](C)O)C(C)C [compound 8130] (For-VGA[dL]A[dL]V[dT]W[dL]W[dV]W[dV]W-NHCH2CH2OH) | 100 | - | 1.17
4 | CC(C)C[C@@H](NC(=O)[C@H](C)NC(=O)[C@H](NC(=O)[C@H](C)NC(=O)CNC(=O)[C@@H](NC=O)C(C)C)[C@H](C)O)C(=O)N[C@H](C(=O)N[C@@H](C(=O)N[C@@H](Cc1c[nH]c2ccccc12)C(=O)N[C@@H](C(=O)N[C@@H](Cc1c[nH]c2ccccc12)C(=O)N[C@H](CC(C)C)C(=O)N[C@@H](Cc1c[nH]c2ccccc12)C(=O)N[C@@H](C(=O)N[C@@H](Cc1c[nH]c2ccccc12)C(=O)NCCO)C(C)C)[C@H](C)O)C(C)C)C(C)C [compound 10338] (For-VGA[dT]A[dL]V[dV]W[dT]W[dL]W[dV]W-NHCH2CH2OH) | 100 | - | 1.01
5 | CC(C)C[C@@H](NC(=O)[C@H](C)NC(=O)CNC(=O)[C@@H](NC=O)C(C)C)C(=O)N[C@@H](C)C(=O)N[C@@H](C(=O)N[C@H](C(=O)N[C@@H](C(=O)N[C@@H](Cc1c[nH]c2ccccc12)C(=O)N[C@H](CC(C)C)C(=O)N[C@@H](Cc1c[nH]c2ccccc12)C(=O)N[C@@H](C(=O)N[C@@H](Cc1c[nH]c2ccccc12)C(=O)N[C@@H](C(=O)N[C@@H](Cc1c[nH]c2ccccc12)C(=O)NCCO)C(C)C)C(C)C)[C@H](C)O)C(C)C)C(C)C [compound 10400] (For-VGA[dL]A[dV]V[dT]W[dL]W[dV]W[dV]W-NHCH2CH2OH) | 100 | - | 1.04
6 | CC(C)C[C@@H](NC(=O)[C@H](Cc1c[nH]c2ccccc12)NC(=O)[C@H](NC(=O)[C@H](Cc1c[nH]c2ccccc12)NC(=O)[C@@H](CC(C)C)NC(=O)[C@H](Cc1c[nH]c2ccccc12)NC(=O)[C@H](NC(=O)[C@@H](NC(=O)[C@H](NC(=O)[C@H](C)NC(=O)[C@H](NC(=O)[C@H](C)NC(=O)CNC(=O)[C@@H](NC=O)C(C)C)C(C)C)[C@H](C)O)C(C)C)C(C)C)C(C)C)C(=O)N[C@@H](Cc1c[nH]c2ccccc12)C(=O)NCCO [compound 7912] (For-VGA[dV]A[dT]V[dV]W[dL]W[dV]W[dL]W-NHCH2CH2OH) | 100 | - | 1.12
7 | CC(C)C[C@@H](NC(=O)[C@H](C)NC(=O)CNC(=O)[C@@H](NC=O)C(C)C)C(=O)N[C@@H](C)C(=O)N[C@@H](C(=O)N[C@H](C(=O)N[C@@H](C(=O)N[C@@H](Cc1c[nH]c2ccccc12)C(=O)N[C@H](CC(C)C)C(=O)N[C@@H](Cc1c[nH]c2ccccc12)C(=O)N[C@H](CC(C)C)C(=O)N[C@@H](Cc1c[nH]c2ccccc12)C(=O)N[C@@H](C(=O)N[C@@H](Cc1c[nH]c2ccccc12)C(=O)NCCO)[C@H](C)O)C(C)C)C(C)C)[C@H](C)O [compound 6873] (For-VGA[dL]A[dT]V[dV]W[dL]W[dL]W[dT]W-NHCH2CH2OH) | 100 | - | 1.15
8 | CC(C)C[C@@H](NC(=O)[C@H](C)NC(=O)CNC(=O)[C@@H](NC=O)C(C)C)C(=O)N[C@@H](C)C(=O)N[C@@H](C(=O)N[C@H](C(=O)N[C@@H](C(=O)N[C@@H](Cc1c[nH]c2ccccc12)C(=O)N[C@@H](C(=O)N[C@@H](Cc1c[nH]c2ccccc12)C(=O)N[C@@H](C(=O)N[C@@H](Cc1c[nH]c2ccccc12)C(=O)N[C@@H](C(=O)N[C@@H](Cc1c[nH]c2ccccc12)C(=O)NCCO)[C@H](C)O)C(C)C)C(C)C)C(C)C)C(C)C)C(C)C [compound 762] (For-VGA[dL]A[dV]V[dV]W[dV]W[dV]W[dT]W-NHCH2CH2OH) | 96.8 | - | 1.01
9 | CNC(=O)C[C@@H](NC(=O)[C@H](Cc1c[nH]c2ccccc12)NC(=O)[C@H](NC(=O)[C@H](Cc1c[nH]c2ccccc12)NC(=O)[C@H](NC(=O)[C@H](Cc1c[nH]c2ccccc12)NC(=O)[C@H](NC(=O)[C@@H](NC(=O)[C@H](NC(=O)[C@H](C)NC(=O)[C@@H](CC(C)C)NC(=O)[C@H](C)NC(=O)CNC(=O)[C@@H](NC=O)C(C)C)C(C)C)C(C)C)C(C)C)C(C)C)C(C)C)C(=O)N[C@@H](Cc1c[nH]c2ccccc12)C(=O)NCCO [compound 362] (For-VGA[dL]A[dV]V[dV]W[dV]W[dV]W[dD](NHMe)W-NHCH2CH2OH) | 100 | - | 1.05
10 | CC(C)C[C@@H](NC(=O)[C@H](C)NC(=O)[C@H](NC(=O)[C@H](C)NC(=O)CNC(=O)[C@@H](NC=O)C(C)C)C(C)C)C(=O)N[C@H](C(=O)N[C@@H](C(=O)N[C@@H](Cc1c[nH]c2ccccc12)C(=O)N[C@@H](C(=O)N[C@@H](Cc1c[nH]c2ccccc12)C(=O)N[C@H](CC(C)C)C(=O)N[C@@H](Cc1c[nH]c2ccccc12)C(=O)N[C@H](CC(C)C)C(=O)N[C@@H](Cc1c[nH]c2ccccc12)C(=O)NCCO)C(C)C)C(C)C)C(C)C [compound 1406] (For-VGA[dV]A[dL]V[dV]W[dV]W[dL]W[dL]W-NHCH2CH2OH) | 91.1 | + | 1.04
11 | CC(C)C[C@@H](NC(=O)[C@H](C)NC(=O)CNC(=O)[C@@H](NC=O)C(C)C)C(=O)N[C@@H](C)C(=O)N[C@@H](C(=O)N[C@H](C(=O)N[C@@H](C(=O)N[C@@H](Cc1c[nH]c2ccccc12)C(=O)N[C@@H](C(=O)N[C@@H](Cc1c[nH]c2ccccc12)C(=O)N[C@@H](C(=O)N[C@@H](Cc1c[nH]c2ccccc12)C(=O)N[C@@H](C(=O)N[C@@H](Cc1c[nH]c2ccccc12)C(=O)NCCO)C(C)C)C(C)C)C(C)C)C(C)C)C(C)C)C(C)C [compound 725] (For-VGA[dL]A[dV]V[dV]W[dV]W[dV]W[dV]W-NHCH2CH2OH) | 100 | + | 1.10
12 | CC(C)C[C@@H](NC(=O)[C@H](C)NC(=O)[C@H](NC(=O)[C@H](C)NC(=O)CNC(=O)[C@@H](NC=O)C(C)C)C(C)C)C(=O)N[C@H](C(=O)N[C@H](CC(C)C)C(=O)N[C@@H](Cc1c[nH]c2ccccc12)C(=O)N[C@H](CC(C)C)C(=O)N[C@@H](Cc1c[nH]c2ccccc12)C(=O)N[C@H](CC(C)C)C(=O)N[C@@H](Cc1c[nH]c2ccccc12)C(=O)N[C@H](CC(C)C)C(=O)N[C@@H](Cc1c[nH]c2ccccc12)C(=O)NCCO)C(C)C [compound 527] (For-VGA[dV]A[dL]V[dL]W[dL]W[dL]W[dL]W-NHCH2CH2OH) | 5.9 | ++ | 1.16
13 | CNC(=O)C[C@@H](NC(=O)[C@H](Cc1c[nH]c2ccccc12)NC(=O)[C@H](NC(=O)[C@@H](NC(=O)[C@@H](CC(C)C)NC(=O)[C@H](C)NC(=O)[C@@H](CC(C)C)NC(=O)[C@H](C)NC(=O)CNC(=O)[C@@H](NC=O)C(C)C)C(C)C)C(C)C)C(=O)N[C@@H](Cc1c[nH]c2ccccc12)C(=O)N[C@H](CC(C)C)C(=O)N[C@@H](Cc1c[nH]c2ccccc12)C(=O)N[C@@H](C(=O)N[C@@H](Cc1c[nH]c2ccccc12)C(=O)NCCO)C(C)C [compound 3329] (For-VGA[dL]A[dL]V[dV]W[dD](NHMe)W[dL]W[dV]W-NHCH2CH2OH) | 100 | + | 1.33
